According to patent US10583162B2, “Compositions useful in the prevention and/or treatment of osteoarticular inflammation and pain and cartilage damage” (Indena S.P.A., priority 2016, dated 2020):

Experiments:
[1] = test system: patients suffering from joint disease of the knee with constant pain; assay: Analgesic activity on analogue pain scale 0 to 10 (Example 6); type: in vivo, Humans; details: second day
Description: 40 patients suffering from joint disease of the knee with constant pain were randomised and treated with two tablets a day, one in the morning and one in the evening, of the composition of example 4, or a placebo (consisting of the carrier only), or the ingredients of the composition of example 1 added individually to the placebo formulation in amounts equal to those present in the composition of example 4.
Efficacy was scored on an international analogue pain scale with scores from 0 to 10, 10 points indicating maximum pain and 0 the disappearance of pain. The effect was evaluated on the second day after administration of the tablet, in the morning 60 and 120 minutes after treatment.

[2] = test system: patients with osteoarthritis, mainly located in the knee; assay: Blinded study vs piroxicam and placebo, analgesic effect on WOMAC scale (Example 5); type: in vivo, Humans
Description: The analgesic activity of a composition according to the invention comprising Vitis vinifera extract complexed with phospholipids, lipophilic extract of Zingiber officinale, lipophilic extract of Zanthoxylum piperitum and an unsaponifiable fraction of Olea europaea was compared with the activity of piroxicam and a placebo. In a blinded study conducted on 180 patients with osteoarthritis, mainly located in the knee, the composition of example 1 was compared with piroxicam and a placebo by conducting a three-month treatment after randomisation, and check-ups on the joint function for six months after discontinuance of the treatment. At the beginning, the analgesic effect, measured with the Western Ontario and McMaster University Osteoarthritis (WOMAC) scale, was evaluated after 7 days' treatment with two capsules/day of the composition of example 1 vs. two […] capsules of piroxicam or placebo. After the first 7 days, the treatment continued for three months, the analgesic effect being measured once a month.

Compound	Pain (scores) at time 60 min. ([1]; 60 minutes after treatment)	Pain (scores) at time 120 min. ([1]; 120 minutes after treatment)	Pain (scores) at time 0 ([1]; time 0 (before the morning tablet))	result (analgesic effect, WOMAC scale) ([2]; 4th month, after discontinuance of the treatment) [%+/−38]	result (analgesic effect, WOMAC scale) ([2]; 5th month, after discontinuance of the treatment) [%+/−23]	efficacy maintained after discontinuance of the treatment ([2]; double-blind trial, after discontinuance)	result (analgesic effect, WOMAC scale) ([2]; during the third month's treatment, two capsules/day) [%+/−31.4]	tolerability ([2]; three-month treatment)	analgesic effect (comparison of the two treated groups) ([2]; three-month treatment, WOMAC)
CC(=O)Oc1cccc2c1C(=O)c1c(OC(C)=O)cc(C(=O)O)cc1C2=O [Diacerein, diacerein]	8.2 ± 0.9	7.9 ± 0.8	9.1 ± 1.5	–	–	–	–	–	–
CN1C(C(=O)Nc2ccccn2)=C(O)c2ccccc2S1(=O)=O [piroxicam]	–	–	–	−41	−24	needed to continue the treatment	−72	had to be discontinued due to evident side effects	comparable analgesic effect
